Results on one compound are retold here after patent US20250305004A1, “ENHANCING GENE TARGETING EFFICIENCY IN HUMAN CELLS WITH DNA-PK INHIBITOR TREATMENT” (The Board of Trustees of the Leland Stanford Junior …, priority 2022, published 2025).

The test system of one assay is HBA1 locus in PSCs. Nature of the assay: RNP/AAV6 gene targeting / gene replacement at HBA1 locus in PSCs. The assay is classed as cell-based, human. The protocol: (§1) Gene targeting efficiency was measured by droplet digital PCR (ddPCR) and flow cytometry (for GFP) to measure the allelic targeting efficiency (FIG. 2B) and percentage of targeted cells (FIG. 2C) respectively. […] The treatment was carried out for 24 hours post gene targeting and the efficiency was calculated 1 week post gene targeting using ddPCR analysis.
(§2) First, we tested the treatment for editing the sickle cell disease (SCD) and cystic fibrosis (CF) mutations at HBB and CFTR loci respectively using the previously described Cas9 RNP and AAV6 donor reagents in WT PSC^71-73 (FIG. 19a-d).
PSC culture and genome editing. […] For each nucleofection, RNP complex was prepared with 5 μg of Cas9 protein and 2 μg of gRNA and incubated for 15 mins at room temperature. PSCs were dissociated into single cells using Accutase (Innovative Cell Technologies, cat: AT104). […] Resuspended cells were added to one well of a 16-well Nucleocuvette Strip (Lonza) and nucleofection was performed in the 4D nucleofector (Lonza) using the program, CA137. Nucleofected PSCs were plated in mTeSR1 medium supplemented with 10 μM of Y27632 at a density of 100,000 cells per well in 48-well plate, AAV6 vector and DNA-PKcs inhibitors were added to the medium at indicated concentrations. […] From the following day, PSCs were cultured in mTeSR1 without Y27632. Gene targeting efficiency was analyzed at 4-6 days post-editing.
(§3) ddPCR analysis of targeted integration. Gene targeting efficiency for the knock-in of multi-kb sequences was measured through digital droplet PCR (ddPCR) analysis. […] After PCR, the droplets were analyzed using the QX200 Droplet Digital PCR reader (Biorad) and Quantasoft software was used to determine the number of copies of the target and reference DNA in the droplets. The allelic gene targeting efficiency was calculated as the percentage of target DNA copies relative to that of the reference. […]
(§4) ICE analysis for quantification of gene editing. […] Following PCR, the amplicons were detected on agarose gel and purified from the gel using GeneJet Gel Extraction Kit (Thermo Fisher Scientific, cat: K0692). […]

The next assay has as its target T1, ATM (Homo sapiens, UniProt Q13315).
T1 construct: various PI3K family kinases in A549 cells (data adapted from previous study); host or cells: A549 cells
The conditions noted are these: A549 cells; cited from earlier work.

Another assay has as its target T2, PI3Kγ (Homo sapiens, UniProt P48736).
T2 construct: various PI3K family kinases in A549 cells (data adapted from previous study); host or cells: A549 cells
The following applies: A549 cells; cited from earlier work.

The subject of a further assay is HBB locus in PSCs. Nature of the assay: RNP/AAV6 gene targeting at HBB locus in PSCs. The assay is classed as cell-based, human. The conditions noted are these: UBC-GFP-bGHpA knock-in; 0.5 μM. On the procedure: as §1, §2
PSC culture and genome editing. […] Gene targeting efficiency was analyzed at 4-6 days post-editing.
as §3, §4

Another assay addresses T3, ATR (Homo sapiens, UniProt Q13535).
T3 construct: various PI3K family kinases in A549 cells (data adapted from previous study); host or cells: A549 cells
The conditions noted are these: A549 cells; cited from earlier work.

Another assay has as its system CCR5 locus in PSCs. Nature of the assay: RNP/AAV6 gene targeting at CCR5 locus, knock-in of UBC-GFP-bGHpA (2.6 kb), PSCs. The assay is classed as cell-based, human. The conditions noted are these: tested at 1, 0.1 and 0.01 μM. The protocol:
as §1
PSC culture and genome editing. […] For each nucleofection, RNP complex was prepared with 5 μg of Cas9 protein and 2 μg of gRNA and incubated for 15 mins at room temperature. PSCs were dissociated into single cells using Accutase (Innovative Cell Technologies, cat: AT104). […] Gene targeting efficiency was analyzed at 4-6 days post-editing.
as §3, §4

T3 sequence (Q13535 whole entry): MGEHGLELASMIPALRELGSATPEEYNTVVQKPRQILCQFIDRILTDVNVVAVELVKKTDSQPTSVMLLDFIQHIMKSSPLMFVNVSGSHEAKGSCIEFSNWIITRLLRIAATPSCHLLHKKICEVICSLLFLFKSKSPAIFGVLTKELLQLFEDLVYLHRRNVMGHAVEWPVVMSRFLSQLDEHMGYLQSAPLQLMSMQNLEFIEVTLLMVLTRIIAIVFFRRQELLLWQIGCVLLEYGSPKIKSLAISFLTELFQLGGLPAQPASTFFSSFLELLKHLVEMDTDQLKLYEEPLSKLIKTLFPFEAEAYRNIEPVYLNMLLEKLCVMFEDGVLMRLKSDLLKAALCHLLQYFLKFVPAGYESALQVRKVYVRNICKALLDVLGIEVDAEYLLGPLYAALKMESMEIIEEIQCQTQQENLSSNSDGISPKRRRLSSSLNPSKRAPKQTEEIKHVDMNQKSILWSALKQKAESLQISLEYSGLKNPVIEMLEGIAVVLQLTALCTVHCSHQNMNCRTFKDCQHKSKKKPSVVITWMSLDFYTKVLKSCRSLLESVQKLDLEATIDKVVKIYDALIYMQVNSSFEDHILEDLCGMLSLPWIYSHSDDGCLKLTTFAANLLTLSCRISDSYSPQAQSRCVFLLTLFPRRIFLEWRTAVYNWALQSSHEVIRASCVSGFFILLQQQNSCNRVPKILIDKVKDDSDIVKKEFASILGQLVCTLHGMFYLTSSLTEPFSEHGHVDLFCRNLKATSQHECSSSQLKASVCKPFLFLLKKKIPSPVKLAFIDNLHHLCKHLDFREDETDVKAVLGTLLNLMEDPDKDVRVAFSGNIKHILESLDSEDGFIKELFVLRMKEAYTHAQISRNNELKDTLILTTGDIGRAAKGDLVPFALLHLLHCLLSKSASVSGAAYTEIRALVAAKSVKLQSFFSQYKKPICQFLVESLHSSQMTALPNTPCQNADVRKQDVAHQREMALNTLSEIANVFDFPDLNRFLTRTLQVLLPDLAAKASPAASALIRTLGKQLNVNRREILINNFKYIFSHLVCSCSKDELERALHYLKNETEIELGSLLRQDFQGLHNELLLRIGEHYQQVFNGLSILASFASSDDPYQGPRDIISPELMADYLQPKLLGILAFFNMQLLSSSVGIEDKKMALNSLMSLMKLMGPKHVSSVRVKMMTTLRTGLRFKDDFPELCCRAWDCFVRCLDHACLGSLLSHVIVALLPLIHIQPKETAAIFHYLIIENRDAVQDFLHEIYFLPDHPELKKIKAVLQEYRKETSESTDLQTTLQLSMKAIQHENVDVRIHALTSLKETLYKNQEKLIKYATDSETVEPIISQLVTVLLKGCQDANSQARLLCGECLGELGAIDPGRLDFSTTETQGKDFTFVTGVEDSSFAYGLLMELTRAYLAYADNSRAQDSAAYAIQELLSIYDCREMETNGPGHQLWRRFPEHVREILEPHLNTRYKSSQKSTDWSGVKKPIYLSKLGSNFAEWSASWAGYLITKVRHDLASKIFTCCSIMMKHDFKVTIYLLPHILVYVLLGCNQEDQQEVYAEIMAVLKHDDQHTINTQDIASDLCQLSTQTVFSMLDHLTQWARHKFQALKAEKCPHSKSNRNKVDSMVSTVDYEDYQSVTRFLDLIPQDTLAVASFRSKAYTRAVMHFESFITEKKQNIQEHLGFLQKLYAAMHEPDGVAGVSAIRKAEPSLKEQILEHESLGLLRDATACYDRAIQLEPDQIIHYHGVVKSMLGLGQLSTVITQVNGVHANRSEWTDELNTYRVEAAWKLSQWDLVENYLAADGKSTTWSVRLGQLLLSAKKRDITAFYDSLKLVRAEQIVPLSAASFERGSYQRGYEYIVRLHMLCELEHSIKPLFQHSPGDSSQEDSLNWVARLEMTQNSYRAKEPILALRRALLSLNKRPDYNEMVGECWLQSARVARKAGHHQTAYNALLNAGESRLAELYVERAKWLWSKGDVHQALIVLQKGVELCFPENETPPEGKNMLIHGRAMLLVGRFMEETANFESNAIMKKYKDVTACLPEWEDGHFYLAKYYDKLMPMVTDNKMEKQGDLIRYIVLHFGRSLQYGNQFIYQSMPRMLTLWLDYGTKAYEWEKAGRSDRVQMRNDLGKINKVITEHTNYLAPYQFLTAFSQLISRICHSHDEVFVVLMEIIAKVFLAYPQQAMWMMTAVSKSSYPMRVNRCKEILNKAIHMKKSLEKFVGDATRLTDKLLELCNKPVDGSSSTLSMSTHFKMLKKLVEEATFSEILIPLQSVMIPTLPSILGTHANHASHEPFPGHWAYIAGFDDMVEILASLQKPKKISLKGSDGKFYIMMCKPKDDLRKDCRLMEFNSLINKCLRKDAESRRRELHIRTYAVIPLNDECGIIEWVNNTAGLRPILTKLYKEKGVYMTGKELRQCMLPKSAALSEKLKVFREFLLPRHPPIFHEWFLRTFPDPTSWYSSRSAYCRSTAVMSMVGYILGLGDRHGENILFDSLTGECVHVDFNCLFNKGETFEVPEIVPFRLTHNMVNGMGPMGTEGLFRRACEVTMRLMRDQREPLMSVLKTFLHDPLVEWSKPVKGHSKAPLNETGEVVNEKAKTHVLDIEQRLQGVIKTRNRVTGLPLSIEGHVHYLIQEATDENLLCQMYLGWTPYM
T3 sequence (Q8WXE1 whole entry partner): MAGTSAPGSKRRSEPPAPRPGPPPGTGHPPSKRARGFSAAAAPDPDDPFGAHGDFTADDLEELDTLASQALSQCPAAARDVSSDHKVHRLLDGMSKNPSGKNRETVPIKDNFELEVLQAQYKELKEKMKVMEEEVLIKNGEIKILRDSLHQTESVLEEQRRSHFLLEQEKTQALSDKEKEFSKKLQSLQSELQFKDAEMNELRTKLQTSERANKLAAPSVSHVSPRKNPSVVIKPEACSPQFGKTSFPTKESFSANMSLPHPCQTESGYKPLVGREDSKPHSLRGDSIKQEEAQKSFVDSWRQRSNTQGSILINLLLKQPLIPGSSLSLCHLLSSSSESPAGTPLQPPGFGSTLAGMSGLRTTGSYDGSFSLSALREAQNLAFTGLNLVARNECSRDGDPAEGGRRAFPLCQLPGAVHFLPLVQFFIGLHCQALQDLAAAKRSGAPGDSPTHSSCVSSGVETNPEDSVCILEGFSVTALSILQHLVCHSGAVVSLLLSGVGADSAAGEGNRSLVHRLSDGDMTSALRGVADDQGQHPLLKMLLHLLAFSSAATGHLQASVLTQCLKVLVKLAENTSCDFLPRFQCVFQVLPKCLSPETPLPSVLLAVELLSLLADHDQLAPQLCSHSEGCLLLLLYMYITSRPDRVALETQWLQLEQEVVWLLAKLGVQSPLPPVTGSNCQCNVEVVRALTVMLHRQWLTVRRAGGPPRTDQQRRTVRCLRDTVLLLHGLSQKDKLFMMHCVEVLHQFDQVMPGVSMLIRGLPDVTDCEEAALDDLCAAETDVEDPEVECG
T2 sequence (P48736 whole entry): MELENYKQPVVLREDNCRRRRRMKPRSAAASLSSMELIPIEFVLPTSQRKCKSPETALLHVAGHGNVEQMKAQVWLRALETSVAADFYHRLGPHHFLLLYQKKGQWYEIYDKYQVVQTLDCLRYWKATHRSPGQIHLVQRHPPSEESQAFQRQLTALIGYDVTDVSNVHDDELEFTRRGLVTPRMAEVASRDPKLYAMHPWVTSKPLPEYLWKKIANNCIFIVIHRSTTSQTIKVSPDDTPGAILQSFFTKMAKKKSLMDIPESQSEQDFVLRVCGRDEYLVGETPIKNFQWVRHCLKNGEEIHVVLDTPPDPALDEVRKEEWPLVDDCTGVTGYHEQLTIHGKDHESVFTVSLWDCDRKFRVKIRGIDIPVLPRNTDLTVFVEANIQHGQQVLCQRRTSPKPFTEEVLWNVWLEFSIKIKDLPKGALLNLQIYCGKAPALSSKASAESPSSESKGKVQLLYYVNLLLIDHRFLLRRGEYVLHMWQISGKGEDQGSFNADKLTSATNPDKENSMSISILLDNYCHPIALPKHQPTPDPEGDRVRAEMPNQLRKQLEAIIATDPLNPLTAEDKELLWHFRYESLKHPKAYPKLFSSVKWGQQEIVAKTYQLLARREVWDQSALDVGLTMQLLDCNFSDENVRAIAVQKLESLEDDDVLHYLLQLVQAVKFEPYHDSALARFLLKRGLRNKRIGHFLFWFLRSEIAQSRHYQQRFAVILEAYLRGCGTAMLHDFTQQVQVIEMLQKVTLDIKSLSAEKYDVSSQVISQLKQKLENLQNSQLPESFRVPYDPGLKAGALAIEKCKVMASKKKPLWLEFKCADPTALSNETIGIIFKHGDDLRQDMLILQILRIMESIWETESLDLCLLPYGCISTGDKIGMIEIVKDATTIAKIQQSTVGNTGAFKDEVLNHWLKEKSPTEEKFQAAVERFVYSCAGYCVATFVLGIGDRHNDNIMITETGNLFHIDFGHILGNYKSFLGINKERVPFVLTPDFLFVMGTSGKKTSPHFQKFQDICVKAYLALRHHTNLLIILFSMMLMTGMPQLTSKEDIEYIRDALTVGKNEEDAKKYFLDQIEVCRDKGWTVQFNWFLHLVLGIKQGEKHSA

Usually IC50 stands for the concentration that gives 50% inhibition. As to `COc1ccc([C@@H](O)c2cc(-c3ncnc4cc(N5CCOCC5)ccc34)c(F)cc2Cl)nn1` [M3814], the “effect on gene targeting vs untreated” value in the assay with HBA1 locus in PSCs (0.5 μM) and in the assay on HBB locus in PSCs was “less prominent effect” in each case. Also, the “concentration at which gene replacement is improved” value in the assay on HBA1 locus in PSCs (tested at 2 and 0.5 μM) was “effective only at the higher concentration”. Further, the values for the IC50 at ATM, on PI3Kγ and at ATR were greater than 30 µM, 1.59 µM and greater than 30 µM, respectively. Moreover, the “concentration at which gene targeting is enhanced” value with CCR5 locus in PSCs is “effective only at 1 μM”.
